According to US7880007B2, “Bicyclic substituted phenyl piperidine modulators of muscarinic receptors” (Vertex Pharmaceuticals Incorporated, priority 2004, dated 2011):

Key:
Type in all cases: cell-based
M1 muscarinic receptor = target: T1, M1 muscarinic receptor (Homo sapiens, UniProt P11229); test: Functional mobilization of intracellular calcium (FLIPR), M1-CHO cells; conditions: for Emax: 100% efficacy = maximum response obtained with the Carbachol control; for M1 Activity: M1-CHO cells, calcium mobilization (FLIPR)
T1 construct: expressed in transfected cells; host or cells: CHO (M1-CHO)
T1 sequence (P11229 1-460): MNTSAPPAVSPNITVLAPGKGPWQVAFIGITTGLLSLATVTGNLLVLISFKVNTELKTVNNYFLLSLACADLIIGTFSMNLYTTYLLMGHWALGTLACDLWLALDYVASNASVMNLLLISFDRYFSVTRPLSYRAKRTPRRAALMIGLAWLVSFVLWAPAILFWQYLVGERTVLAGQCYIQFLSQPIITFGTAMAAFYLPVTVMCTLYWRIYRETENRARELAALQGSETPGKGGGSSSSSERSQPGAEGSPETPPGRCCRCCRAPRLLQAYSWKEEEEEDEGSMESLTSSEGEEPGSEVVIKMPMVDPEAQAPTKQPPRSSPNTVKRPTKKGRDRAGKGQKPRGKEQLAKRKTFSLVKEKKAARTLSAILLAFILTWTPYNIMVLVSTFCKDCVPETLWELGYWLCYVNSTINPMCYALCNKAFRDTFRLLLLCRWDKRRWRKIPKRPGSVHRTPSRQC
How it was run: (§1)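 Calcium mobilisation read by FLIPR over 60 s (ex 488/em 540 nm) in recombinant muscarinic CHO lines loaded with calcium dye plus 1 mM probenecid. Compounds tested as agonists alone, or as inhibitors against EC80 carbachol after 15 min pre-incubation or co-addition; 0.5% DMSO; efficacy scaled to carbachol maximal response.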

M4 muscarinic receptor = target: T2, M4 muscarinic receptor (Homo sapiens, UniProt P08173); test: Functional mobilization of intracellular calcium (FLIPR), M4-CHO cells; conditions: for Emax: 100% efficacy = maximum response obtained with the Carbachol control; for M4 Activity: M4-CHO cells, calcium mobilization (FLIPR)
T2 construct: expressed in transfected cells; host or cells: CHO (M4-CHO)
T2 sequence (P08173 1-479): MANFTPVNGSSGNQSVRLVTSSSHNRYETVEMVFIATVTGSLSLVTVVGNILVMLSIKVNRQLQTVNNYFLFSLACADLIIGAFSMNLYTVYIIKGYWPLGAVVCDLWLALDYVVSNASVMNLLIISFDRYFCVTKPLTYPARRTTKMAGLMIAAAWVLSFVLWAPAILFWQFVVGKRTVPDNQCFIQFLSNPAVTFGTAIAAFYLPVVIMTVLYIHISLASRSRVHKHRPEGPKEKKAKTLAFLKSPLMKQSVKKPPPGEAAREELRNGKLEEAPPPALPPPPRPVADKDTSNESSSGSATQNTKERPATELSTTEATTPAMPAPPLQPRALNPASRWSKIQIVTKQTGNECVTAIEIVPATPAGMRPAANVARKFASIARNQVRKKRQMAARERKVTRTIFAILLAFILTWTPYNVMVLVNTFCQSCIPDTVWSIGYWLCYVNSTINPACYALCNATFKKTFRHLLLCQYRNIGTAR
How it was run: as §1

M3 muscarinic receptor = target: T3, M3 muscarinic receptor (Homo sapiens, UniProt P20309); test: Functional mobilization of intracellular calcium (FLIPR), M3-CHO cells; conditions: for Emax: 100% efficacy = maximum response obtained with the Carbachol control; for M3 Activity: M3-CHO cells, calcium mobilization (FLIPR)
T3 construct: expressed in transfected cells; host or cells: CHO (M3-CHO)
T3 sequence (P20309 whole entry): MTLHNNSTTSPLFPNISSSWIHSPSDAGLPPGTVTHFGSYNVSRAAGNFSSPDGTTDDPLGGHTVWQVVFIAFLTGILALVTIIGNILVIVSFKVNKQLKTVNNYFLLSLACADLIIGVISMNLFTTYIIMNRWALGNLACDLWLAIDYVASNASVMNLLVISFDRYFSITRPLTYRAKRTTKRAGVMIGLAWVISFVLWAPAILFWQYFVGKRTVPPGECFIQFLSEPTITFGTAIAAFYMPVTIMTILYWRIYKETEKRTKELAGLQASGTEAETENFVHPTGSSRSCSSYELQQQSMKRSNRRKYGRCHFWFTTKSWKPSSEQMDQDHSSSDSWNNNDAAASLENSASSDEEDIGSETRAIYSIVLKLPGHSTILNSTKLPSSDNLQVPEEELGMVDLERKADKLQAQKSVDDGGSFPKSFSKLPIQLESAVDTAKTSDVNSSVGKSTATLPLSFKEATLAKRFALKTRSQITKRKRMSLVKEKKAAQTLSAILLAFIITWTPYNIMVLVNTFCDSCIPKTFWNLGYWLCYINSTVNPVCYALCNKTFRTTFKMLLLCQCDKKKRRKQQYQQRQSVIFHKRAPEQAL
How it was run: as §1

M2 muscarinic receptor = target: T4, M2 muscarinic receptor (Homo sapiens, UniProt P08172); test: Functional mobilization of intracellular calcium (FLIPR), M2-CHO cells; conditions: for Emax: 100% efficacy = maximum response obtained with the Carbachol control; for M2 Activity: M2-CHO cells, calcium mobilization (FLIPR)
T4 construct: expressed in transfected cells; host or cells: CHO (M2-CHO)
T4 sequence (P08172 1-466): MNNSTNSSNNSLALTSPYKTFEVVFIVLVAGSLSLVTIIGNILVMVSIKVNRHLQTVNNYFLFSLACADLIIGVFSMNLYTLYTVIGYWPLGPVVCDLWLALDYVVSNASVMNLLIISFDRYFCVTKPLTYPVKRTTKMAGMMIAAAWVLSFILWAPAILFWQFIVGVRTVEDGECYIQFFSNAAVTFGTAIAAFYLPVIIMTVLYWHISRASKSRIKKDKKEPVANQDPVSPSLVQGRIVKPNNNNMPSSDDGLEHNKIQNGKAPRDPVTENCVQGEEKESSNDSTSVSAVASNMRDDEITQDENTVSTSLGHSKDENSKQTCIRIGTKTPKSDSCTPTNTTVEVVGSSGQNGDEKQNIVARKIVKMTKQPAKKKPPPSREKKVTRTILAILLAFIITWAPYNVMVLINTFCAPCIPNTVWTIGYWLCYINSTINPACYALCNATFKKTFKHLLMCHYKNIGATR
How it was run: as §1

Compound	Emax (M1 muscarinic receptor) [%]	M1 Activity (M1 muscarinic receptor)	Emax (M4 muscarinic receptor) [%]	M4 Activity (M4 muscarinic receptor)	Emax (M3 muscarinic receptor) [%]	M3 Activity (M3 muscarinic receptor)	Emax (M2 muscarinic receptor) [%]	M2 Activity (M2 muscarinic receptor)
CCOC(=O)N1CCC(CN2CCC(c3cc(F)cc(F)c3OC)CC2)CC1 [Compound 65]	25 to 100	+++ (activity was measured to be less than 1.0 μM)	25 to 100	+++ (activity was measured to be less than 1.0 μM)	< 25	+ (activity was measured to be greater than 5.0 μM)	< 25	+ (activity was measured to be greater than 5.0 μM)
COc1ccccc1C1CCN(C2CCCS(=O)(=O)CC2)CC1 (stereo not drawn) [Compound 66]	25 to 100	+ (activity was measured to be greater than 5.0 μM)	25 to 100	++ (activity was measured to be from 1.0 μM to 5.0 μM)	< 25	+ (activity was measured to be greater than 5.0 μM)	< 25	+ (activity was measured to be greater than 5.0 μM)
COc1ccc(-c2ccccc2C)cc1C1CCN([C@@H]2C[C@H]3CC[C@H]2C3)CC1 [Compound 67]	< 25	+ (activity was measured to be greater than 5.0 μM)	25 to 100	+ (activity was measured to be greater than 5.0 μM)	< 25	+ (activity was measured to be greater than 5.0 μM)	< 25	+ (activity was measured to be greater than 5.0 μM)
CCOc1ccccc1C1CCN([C@H]2C[C@H]3CC[C@H]2C3)CC1 [Compound 68]	25 to 100	++ (activity was measured to be from 1.0 μM to 5.0 μM)	25 to 100	+++ (activity was measured to be less than 1.0 μM)	< 25	+ (activity was measured to be greater than 5.0 μM)	< 25	+ (activity was measured to be greater than 5.0 μM)
COc1cccc(-c2ccc(OC)c(C3CCN([C@@H]4C[C@H]5CC[C@H]4C5)CC3)c2)c1 [Compound 69]	< 25	+ (activity was measured to be greater than 5.0 μM)	25 to 100	+ (activity was measured to be greater than 5.0 μM)	< 25	+ (activity was measured to be greater than 5.0 μM)	< 25	+ (activity was measured to be greater than 5.0 μM)
FC(F)(F)Oc1ccccc1C1CCN(C2CCOCC2)CC1 [Compound 70]	25 to 100	+ (activity was measured to be greater than 5.0 μM)	25 to 100	++ (activity was measured to be from 1.0 μM to 5.0 μM)	< 25	+ (activity was measured to be greater than 5.0 μM)	< 25	+ (activity was measured to be greater than 5.0 μM)
COc1ccccc1C1CCN(C2CCN(C(=O)c3ccccc3)CC2)CC1 [Compound 71]	< 25	+ (activity was measured to be greater than 5.0 μM)	< 25	+ (activity was measured to be greater than 5.0 μM)	< 25	+ (activity was measured to be greater than 5.0 μM)	< 25	+ (activity was measured to be greater than 5.0 μM)
Cc1ccc(F)cc1C1CCN(C2C[C@H]3CC[C@H]2C3)CC1 (stereo partly drawn) [Compound 73]	25 to 100	++ (activity was measured to be from 1.0 μM to 5.0 μM)	25 to 100	+++ (activity was measured to be less than 1.0 μM)	< 25	+ (activity was measured to be greater than 5.0 μM)	25 to 100	++ (activity was measured to be from 1.0 μM to 5.0 μM)
COc1ccc(Cl)cc1C1(F)CCN(C2C3CCCC2CCC3)CC1 (stereo not drawn) [Compound 74]	< 25	+ (activity was measured to be greater than 5.0 μM)	< 25	+ (activity was measured to be greater than 5.0 μM)	< 25	+ (activity was measured to be greater than 5.0 μM)	< 25	+ (activity was measured to be greater than 5.0 μM)
COc1cc(F)c(F)cc1C1CCN([C@@H]2C[C@H]3CC[C@H]2C3)CC1 [Compound 76]	< 25	+ (activity was measured to be greater than 5.0 μM)	25 to 100	++ (activity was measured to be from 1.0 μM to 5.0 μM)	< 25	+ (activity was measured to be greater than 5.0 μM)	< 25	+ (activity was measured to be greater than 5.0 μM)
COc1ccc(-c2ccc3c(c2)OCO3)cc1C1CCN(C2CC3CCC(C3)C2)CC1 (stereo not drawn) [Compound 77]	< 25	+ (activity was measured to be greater than 5.0 μM)	25 to 100	+ (activity was measured to be greater than 5.0 μM)	< 25	+ (activity was measured to be greater than 5.0 μM)	< 25	+ (activity was measured to be greater than 5.0 μM)
COc1ccc(F)cc1C1CCN([C@H]2C[C@H]3CC[C@H]2C3)CC1 [Compound 78]	25 to 100	++ (activity was measured to be from 1.0 μM to 5.0 μM)	25 to 100	+++ (activity was measured to be less than 1.0 μM)	< 25	+ (activity was measured to be greater than 5.0 μM)	< 25	+ (activity was measured to be greater than 5.0 μM)
COc1ccccc1C1CCN(C2CC3CCC2C3)CC1 (stereo not drawn) [Compound 79]	25 to 100	+ (activity was measured to be greater than 5.0 μM)	25 to 100	+++ (activity was measured to be less than 1.0 μM)	< 25	+ (activity was measured to be greater than 5.0 μM)	< 25	+ (activity was measured to be greater than 5.0 μM)
COc1ccc(-c2ccc(C#N)cc2)cc1C1CCN(C2CC3CCC(C3)C2)CC1 (stereo not drawn) [Compound 82]	25 to 100	+ (activity was measured to be greater than 5.0 μM)	25 to 100	+ (activity was measured to be greater than 5.0 μM)	< 25	+ (activity was measured to be greater than 5.0 μM)	< 25	+ (activity was measured to be greater than 5.0 μM)
COc1ccc(Cl)cc1C1(F)CCN(C2CCC3CCC2C3)CC1 (stereo not drawn) [Compound 83]	25 to 100	+ (activity was measured to be greater than 5.0 μM)	25 to 100	++ (activity was measured to be from 1.0 μM to 5.0 μM)	< 25	+ (activity was measured to be greater than 5.0 μM)	25 to 100	+ (activity was measured to be greater than 5.0 μM)
